# Laboratory results as given in patent publication US7262318B2, “Substituted heteroaryl- and phenylsulfamoyl compounds” (Pfizer, Inc., priority 2004, dated 2007).
# Test system: transition cows
# Test: Blood non-esterified fatty acid (NEFA) concentrations in transition cows
# Assay type: in vivo, cow
# Conditions: 0.5 mg/kg every other day from targeted day -7 pre partum and at calving, days 1–8, p<0.10, with the exception of day 5 (p=0.17)
# Method: Determination of Chances in Blood Non-esterified Fatty Acid (NEFA) Concentrations and Liver Triglycerides Levels:
# Compounds are administered once or several times in the transition period at dose levels predicted to be effective by comparing results of in-vitro receptor affinity tests in laboratory species and pharmacokinetic evaluations in cattle. NEFA levels are determined via standard laboratory methods, for example, using the commercial WAKO NEFA kit (Wako Chemical Co., USA, Dallas, Tex., 994-75409), and liver triglyceride content is determined using the method as described in the literature (J. K. Drackley, J. J. Veenhuizen, M. J. Richard and J. W. Young, J Dairy Sci, 1991, 74, 4254)).
# All animals may be obtained from a commercial dairy farm approximately thirty days prior to anticipated calving date. […]
# As soon as possible post-calving (˜30 minutes) the cow is transferred to the freestall barn for the next scheduled milking (6:00 hrs and 19:00 hrs). […] Pre and post-calving NEFA samples are analyzed using the WAKO NEFA-C test kit (#994-75409). […] Tissues are transported on ice and stored frozen at −70° F. At the conclusion of the study, samples are analysed of liver triglyceride levels using the method described by Drackley, J. K. et al. (1991, J Dairy Sci (74):4254–4264).
smiles,measurement,value
"Cc1ccc(S(=O)(=O)Nc2ccc(-c3ccc(OC(F)(F)F)cc3)cc2)cc1C(=O)O [Example T02, 2-Methyl-5-(4′-trifluoromethoxy-biphenyl-4-ylsulfamoyl)-benzoic acid]",serum NEFA levels as compared to control,significantly lower
